A short description of the series: Principal components analysis of amino acid physical properties from 31 studies. Particulars: for Prin1: first principal component, index of amino acid polarity or hydrophobicity, most hydrophobic highest; for Prin2: second principal component, related to size or volume, smallest has highest score; for Prin3: third principal component. From the text: In some cases, principal components of amino acids are utilized to accurately predict binding affinities of sub-sequences of amino acids within the proteins to all MHC-I and MHC-II receptors. Principal Components Analysis is a mathematical process that is used in many different scientific fields and which reduces the dimensionality of a set of data. (Bishop, C.M., Neural Networks for Pattern Recognition. Oxford University Press, Oxford 1995. Bouland, H. and Kamp,Y., Biological Cybernetics 1988. 59: 291-294.). Derivation of principal components is a linear transformation that locates directions of maximum variance in the original input data, and rotates the data along these axes. Typically, the first several principal components contain the most information. Principal components is particularly useful for large datasets with many different variables. Using principal components provides a way to picture the structure of the data as completely as possible by using as few variables as possible. For n original variables, n principal components are formed as follows: The first principal component is the linear combination of the standardized original variables that has the greatest possible variance. Each subsequent principal component is the linear combination of the standardized original variables that has the greatest possible variance and is uncorrelated with all previously defined components. Further, the principal components are scale-independent in that they can be developed from different types of measurements. For example, datasets from HPLC retention times (time units) or atomic radii ([…]) can be consolidated to produce principal components. Another characteristic is that principal components are weighted appropriately for their respective contributions to the response and one common use of principal components is to develop appropriate weightings for regression parameters in multivariate regression analysis. Outside the field of immunology, principal components analysis (PCA) is most widely used in regression analysis. Initial tests were conducted using the principal components in a multiple regression partial least squares (PLS) approach (Wold, S., Sjorstrom,M., and Eriksson,L., Chemometrics and Intelligent Laboratory Systems 2001. 58: 109-130.). Principal component analysis can be represented in a linear network. PCA can often extract a very small number of components from quite high-dimensional original data and still retain the important structure.
Accordingly, in some cases physical properties of amino acids are used for subsequent analysis. The compiled physical properties are available at a proteomics resource website (expasy.org/tools/protscale.html). In some cases, the data for each of the 20 different amino acids from these studies are tabulated, resulting in 20 x 31 different datapoints, each providing a unique estimate of a physical characteristic of that amino acid. The power of principal component analysis lies in the fact that the results of all of these studies can be combined to produce a set of mathematical properties of the amino acids which have been derived by a wide array of independent methodologies. The patterns derived in this way are similar to those of Wold et. al. but the absolute numbers are different. The physicochemical properties derived in the studies used for this calculation are shown in (Table 2). […] All subsequent work described herein is based on use of the first three principal components.
From this it can be seen that the first principal component (Prin1) is an index of amino acid polarity or hydrophobicity; the most hydrophobic amino acids have the highest numerical value. The second principal component (Prin2) is related to the size or volume of the amino acid, with the smallest having the highest score. […]

Turning to `NC(Cc1c[nH]cn1)C(=O)O` (stereo not drawn) [H], the Prin1 was -2.55, the Prin2 was -1.00 and the Prin3 is -1.94.

In the case of `NC(CC(=O)O)C(=O)O` (stereo not drawn) [D], the Prin1 is reported as -6.04, the Prin2 is reported as 0.03 and the Prin3 is reported as -0.18.

For `N=C(N)NCCCC(N)C(=O)O` (stereo not drawn) [R], the Prin1 was -6.30, the Prin2 is listed as -2.93 and the Prin3 is reported as -0.91.

In the case of `NCCCCC(N)C(=O)O` (stereo not drawn) [K], the Prin1 is -6.68, the Prin2 is -1.32 and the Prin3 is on record as 1.16.

Turning to `NC(=O)CC(N)C(=O)O` (stereo not drawn) [N], the Prin1 was -4.35, the Prin2 is listed as 0.21 and the Prin3 stood at 0.30.

With `CC(N)C(=O)O` (stereo not drawn) [A], the Prin1 worked out at 0.72, the Prin2 came to 2.48 and the Prin3 amounted to 1.42.

Regarding `NCC(=O)O` [G], the Prin1 was -0.76, the Prin2 amounted to 3.08 and the Prin3 amounted to 1.21.

As for `NC(CCC(=O)O)C(=O)O` (stereo not drawn) [E], the Prin1 is -5.70, the Prin2 is 0.34 and the Prin3 is given as -1.46.

As for `O=C(O)C1CCCN1` (stereo not drawn) [P], the Prin1 is -0.03, the Prin2 is on record as -0.36 and the Prin3 was found to be 1.87.

In the case of `NC(=O)CCC(N)C(=O)O` (stereo not drawn) [Q], the Prin1 is -3.97, the Prin2 is recorded as -0.47 and the Prin3 was found to be 0.15.

As for `CC(O)C(N)C(=O)O` (stereo not drawn) [T], the Prin1 is on record as -1.42, the Prin2 amounted to 0.80 and the Prin3 stood at 0.94.
